From publication PMC11750102, “Inhibition of the anti-apoptotic protein BCL2 in EML4-ALK cell models as a second proposed therapeutic target for non-small cell lung cancer” (PLOS ONE, 2025)
pIC50: −log10 of the molar value.

Target: T1, Anaplastic lymphoma kinase (ALK) (Homo sapiens, UniProt Q9UM73)
T1 construct: purified recombinant GST-ALK
Test: ELISA-based in vitro kinase assay with peptide substrate
Assay type: biochemical

T1 sequence (Q9UM73 19-1620): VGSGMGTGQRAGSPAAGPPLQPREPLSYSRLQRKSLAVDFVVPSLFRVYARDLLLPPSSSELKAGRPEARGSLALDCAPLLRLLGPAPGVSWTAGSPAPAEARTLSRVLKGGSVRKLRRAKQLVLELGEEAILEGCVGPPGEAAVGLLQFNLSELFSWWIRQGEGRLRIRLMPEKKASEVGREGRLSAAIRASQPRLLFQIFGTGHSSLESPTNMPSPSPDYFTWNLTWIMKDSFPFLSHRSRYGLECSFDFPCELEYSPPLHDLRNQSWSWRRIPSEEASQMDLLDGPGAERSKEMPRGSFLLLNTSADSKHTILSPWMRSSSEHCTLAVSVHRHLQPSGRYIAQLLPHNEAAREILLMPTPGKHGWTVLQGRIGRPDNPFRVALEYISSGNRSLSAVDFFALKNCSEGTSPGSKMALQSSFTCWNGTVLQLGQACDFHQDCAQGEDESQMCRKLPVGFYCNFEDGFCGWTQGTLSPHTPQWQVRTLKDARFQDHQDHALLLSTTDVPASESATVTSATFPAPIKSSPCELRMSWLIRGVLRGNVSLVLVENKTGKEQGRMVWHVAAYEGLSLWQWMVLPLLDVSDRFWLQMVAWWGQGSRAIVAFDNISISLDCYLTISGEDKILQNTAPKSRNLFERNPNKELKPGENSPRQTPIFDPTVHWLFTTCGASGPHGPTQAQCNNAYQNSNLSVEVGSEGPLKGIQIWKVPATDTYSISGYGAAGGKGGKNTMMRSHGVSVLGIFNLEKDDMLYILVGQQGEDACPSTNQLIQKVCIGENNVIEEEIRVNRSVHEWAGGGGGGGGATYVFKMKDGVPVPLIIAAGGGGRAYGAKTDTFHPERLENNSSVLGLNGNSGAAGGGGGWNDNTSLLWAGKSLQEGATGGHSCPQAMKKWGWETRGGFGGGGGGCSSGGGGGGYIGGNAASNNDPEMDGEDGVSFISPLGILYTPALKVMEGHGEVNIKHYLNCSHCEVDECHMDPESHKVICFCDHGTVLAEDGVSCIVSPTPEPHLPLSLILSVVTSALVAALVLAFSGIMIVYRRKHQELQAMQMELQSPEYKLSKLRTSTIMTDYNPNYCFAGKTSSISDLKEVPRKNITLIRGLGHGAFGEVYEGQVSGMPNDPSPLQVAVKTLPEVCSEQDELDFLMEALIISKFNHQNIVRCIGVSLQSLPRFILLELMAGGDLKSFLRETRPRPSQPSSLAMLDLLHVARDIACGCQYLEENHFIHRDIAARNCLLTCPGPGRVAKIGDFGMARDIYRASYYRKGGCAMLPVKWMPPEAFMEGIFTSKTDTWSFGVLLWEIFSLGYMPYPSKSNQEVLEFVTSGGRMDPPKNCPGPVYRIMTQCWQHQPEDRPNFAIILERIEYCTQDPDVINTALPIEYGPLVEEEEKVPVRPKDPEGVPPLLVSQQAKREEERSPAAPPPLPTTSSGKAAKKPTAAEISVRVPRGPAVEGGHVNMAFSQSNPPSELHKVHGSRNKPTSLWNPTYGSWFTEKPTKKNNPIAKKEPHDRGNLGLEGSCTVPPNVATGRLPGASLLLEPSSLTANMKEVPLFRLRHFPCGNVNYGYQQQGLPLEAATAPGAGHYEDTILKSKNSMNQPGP

## CC1(C)CCC(CN2CCN(c3ccc(C(=O)NS(=O)(=O)c4ccc(NCC5CCOCC5)c([N+](=O)[O-])c4)c(Oc4cnc5[nH]ccc5c4)c3)CC2)=C(c2ccc(Cl)cc2)C1 [ABT-199]
  pIC50: 5.26
